Measured values published in patent US20160137639A1, “TRIAZOLE-ISOXAZOLE COMPOUND AND MEDICAL USE THEREOF” (JAPAN TOBACCO INC., priority 2012, published 2016).
Like-named read-outs stand apart in the source and are kept apart here.

Legend:
[1] = biological target: T1, human RORγ (Homo sapiens, UniProt P51449); assay: Luciferase reporter gene assay of inhibitory effect against RORγ transcriptional activity (GAL4-hRORγ plasmid in CHO cells); type: cell-based
T1 construct: human, NM_005060.3 and from Ser253 to Lys518; expressed in transfected cells; host or cells: CHO cells (transient co-transfection with pG5-Luc reporter)
T1 sequence (P51449 253-518): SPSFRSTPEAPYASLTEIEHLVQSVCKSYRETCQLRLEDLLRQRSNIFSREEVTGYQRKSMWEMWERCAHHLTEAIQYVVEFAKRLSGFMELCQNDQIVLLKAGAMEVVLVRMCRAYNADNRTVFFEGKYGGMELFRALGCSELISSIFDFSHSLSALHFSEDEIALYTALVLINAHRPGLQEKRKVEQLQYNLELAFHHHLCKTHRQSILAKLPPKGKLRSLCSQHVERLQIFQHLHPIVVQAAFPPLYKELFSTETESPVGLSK

[2] = biological target: T2, mouse RORγ (Mus musculus, UniProt P51450); assay: Luciferase reporter gene assay of inhibitory effect against RORγ transcriptional activity (GAL4-mRORγ plasmid in CHO cells); type: cell-based
T2 construct: mouse, NM_011281.2 and from Ile251 to Lys516; expressed in transfected cells; host or cells: CHO cells (transient co-transfection with pG5-Luc reporter)
T2 sequence (P51450 251-516): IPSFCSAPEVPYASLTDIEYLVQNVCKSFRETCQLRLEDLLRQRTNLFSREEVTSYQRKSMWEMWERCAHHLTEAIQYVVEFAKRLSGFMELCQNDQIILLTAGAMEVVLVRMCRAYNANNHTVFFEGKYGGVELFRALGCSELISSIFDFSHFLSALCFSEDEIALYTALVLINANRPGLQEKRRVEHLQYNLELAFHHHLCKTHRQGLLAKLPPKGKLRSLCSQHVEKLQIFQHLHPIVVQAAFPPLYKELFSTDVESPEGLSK
How it was run: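 CHO cells transiently co-transfected with GAL4-mouse RORγ LBD (Ile251–Lys516) and GAL4-dependent luciferase reporter; eight compound concentrations, 0.1% DMSO, 2 days at 37 °C. Luminescence as %-of-vehicle control; EC50 by curve fit, cytotoxic concentrations excluded.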

| Compound | EC50 ([1]; read-out: LUC EC50 (μM) hRORg) [µM] | EC50 ([2]; read-out: LUC EC50 (μM) mRORg) [µM] | EC50 ([1]; read-out: LUC EC50 hRORg) [µM] | EC50 ([2]; read-out: LUC EC50 mRORg) [µM] |
| --- | --- | --- | --- | --- |
| Cc1ccc(NC(=O)CC(Cc2ccccn2)c2nnc([C@H]3C[C@@H](CC(C)C)C3)n2C2CC2)c(C)c1 (mixture of isomers) [Example F-422] | < 3 | < 3 | – | – |
| Cc1ccc(NC(=O)[C@H]2C[C@@H](O)C[C@@H]2c2nnc([C@H]3C[C@@H](CC(C)C)C3)n2C2CC2)c(C)c1 (racemic) [Example F-431] | < 3 | < 3 | – | – |
| CC(=O)N1CC[C@H](c2nnc(CCCC(C)(C)C)n2C2CC2)[C@@H](C(=O)Nc2ccc(C)cc2C)C1 (racemic) [Example F-435] | < 3 | < 3 | – | – |
| Cc1ccc(NC(=O)CC(Cc2ccccc2)c2nnc(CCCC(C)(C)C)n2C2CC2)c(C)c1 (racemic) [Example F-436] | < 3 | < 3 | – | – |
| C#CCC(CC(=O)Nc1ccc(C)cc1C)c1nnc(CCCC(C)(C)C)n1C1CC1 (racemic) [Example F-437] | < 3 | < 3 | – | – |
| Cc1ccc(NC(=O)CC(CC(C)C)c2nnc(CCCC(C)(C)C)n2C2CC2)c(C)c1 (racemic) [Example F-438] | < 3 | < 3 | – | – |
| Cc1ccc(NC(=O)CC(Cc2nccs2)c2nnc([C@H]3C[C@@H](CC(C)C)C3)n2C2CC2)c(C)c1 (mixture of isomers) [Example F-439] | < 3 | < 3 | – | – |
| Cc1ccc(NC(=O)CC(CC#N)c2nnc(CCCC(C)(C)C)n2C2CC2)c(C)c1 (racemic) [Example F-440] | < 3 | < 3 | – | – |
| CNC(=O)N1C[C@H](C(=O)Nc2ccc(C)cc2C)[C@@H](c2nnc(CCCC(C)(C)C)n2C2CC2)C1 (racemic) [Example F-446] | < 3 | < 3 | – | – |
| Cc1ccc(NC(=O)[C@H]2CN(C(=O)N(C)C)C[C@@H]2c2nnc(CCCC(C)(C)C)n2C2CC2)c(C)c1 (racemic) [Example F-447] | < 3 | < 3 | – | – |
| Cc1ccc(NC(=O)[C@H]2CN(c3nc(C)cs3)C[C@@H]2c2nnc(CCCC(C)(C)C)n2C2CC2)c(C)c1 (racemic) [Example F-448] | < 3 | < 3 | – | – |
| Cc1ccc(NC(=O)[C@H]2CNC[C@@H]2c2nnc(CCCC(C)(C)C)n2C2CC2)c(C)c1 (racemic) [Example F-449] | > 3 | > 3 | – | – |
| Cc1ccc(NC(=O)CC(Cc2cc(O)no2)c2nnc([C@H]3C[C@@H](CC(C)C)C3)n2C2CC2)c(C)c1 (mixture of isomers) [Example F-450] | < 3 | < 3 | – | – |
| CC(=O)N1C[C@H](C(=O)Nc2ccc(C)cc2C)[C@@H](c2nnc(C3CC4(CCCCC4)C3)n2C2CC2)C1 (racemic) [Example F-452] | < 3 | < 3 | – | – |
| Cc1ccc(NC(=O)CC(c2nnc(CCCC(C)(C)C)n2C2CC2)C(C)C)c(C)c1 (racemic) [Example F-453] | < 3 | < 3 | – | – |
| Cc1ccc(NC(=O)CC(Cc2ncco2)c2nnc([C@H]3C[C@@H](CC(C)C)C3)n2C2CC2)c(C)c1 (mixture of isomers) [Example F-454] | < 3 | < 3 | – | – |
| Cc1ccc(NC(=O)CC(CCOCc2ccccc2)c2nnc(-c3cc(CC(C)C)on3)n2C2CC2)c(C)c1 (racemic) [Example F-455] | > 3 | < 3 | – | – |
| Cc1ccc(NC(=O)CC(c2nnc([C@H]3C[C@@H](CC(C)C)C3)n2C2CC2)C2CN(C(=O)OCc3ccccc3)C2)c(C)c1 (mixture of isomers) [Example F-459] | < 3 | < 3 | – | – |
| Cc1ccc(NC(=O)CC(c2nnc([C@H]3C[C@@H](CC(C)C)C3)n2C2CC2)C2CNC2)c(C)c1 (mixture of isomers) [Example F-468] | > 3 | > 3 | – | – |
| Cc1ccc(NC(=O)CC(c2nnc([C@H]3C[C@@H](CC(C)C)C3)n2C2CC2)C2CN(C)C2)c(C)c1 (mixture of isomers) [Example F-469] | > 3 | > 3 | – | – |
| Cc1ccc(NC(=O)CC(Cc2nc(=O)o[nH]2)c2nnc([C@H]3C[C@@H](CC(C)C)C3)n2C2CC2)c(C)c1 (mixture of isomers) [Example F-472] | < 3 | < 3 | – | – |
| Cc1ccc(NC(=O)CC(Cc2nnn[nH]2)c2nnc([C@H]3C[C@@H](CC(C)C)C3)n2C2CC2)c(C)c1 (mixture of isomers) [Example F-481] | > 3 | > 3 | – | – |
| Cc1ccc(NC(=O)CC(CCOC(=O)N(C)C)c2nnc([C@H]3C[C@@H](CC(C)C)C3)n2C2CC2)c(C)c1 (mixture of isomers) [Example F-484] | < 3 | < 3 | – | – |

| Compound | EC50 ([1]; read-out: LUC EC50 (μM) hRORg) [µM] | EC50 ([2]; read-out: LUC EC50 (μM) mRORg) [µM] | EC50 ([1]; read-out: LUC EC50 hRORg) [µM] | EC50 ([2]; read-out: LUC EC50 mRORg) [µM] |
| --- | --- | --- | --- | --- |
| Cc1ccc(NC(=O)CC(Cc2nc(=O)on2C)c2nnc([C@H]3C[C@@H](CC(C)C)C3)n2C2CC2)c(C)c1 (mixture of isomers) [Example F-485] | < 3 | < 3 | – | – |
| Cc1ccc(NC(=O)C(C)C(CCOCc2ccccc2)c2nnc([C@H]3C[C@@H](CC(C)C)C3)n2C2CC2)c(C)c1 (mixture of isomers) [Example F-488] | > 3 | < 3 | – | – |
| Cc1ccc(NC(=O)CC(CO)c2nnc(CCCC(C)(C)C)n2C2CC2)c(C)c1 (racemic) [Example F-497] | – | – | < 3 | < 3 |
| Cc1ccc(NC(=O)CC(CC(=O)OC(C)(C)C)c2nnc([C@H]3C[C@@H](CC(C)C)C3)n2C2CC2)c(C)c1 (mixture of isomers) [Example F-498] | – | – | < 3 | < 3 |
| Cc1ccc(NC(=O)CC(CC(=O)O)c2nnc([C@H]3C[C@@H](CC(C)C)C3)n2C2CC2)c(C)c1 (mixture of isomers) [Example F-499] | – | – | > 3 | < 3 |
| Cc1ccc(NC(=O)CC(CC(=O)N(C)C)c2nnc([C@H]3C[C@@H](CC(C)C)C3)n2C2CC2)c(C)c1 (mixture of isomers) [Example F-500] | – | – | < 3 | < 3 |
| Cc1ccc(NC(=O)CC(CC(=O)N2CCCC2)c2nnc([C@H]3C[C@@H](CC(C)C)C3)n2C2CC2)c(C)c1 (mixture of isomers) [Example F-501] | – | – | < 3 | < 3 |
| COc1cccc(CC(CC(=O)Nc2ccc(C)cc2C)c2nnc([C@H]3C[C@@H](CC(C)C)C3)n2C2CC2)n1 (mixture of isomers) [Example F-504] | – | – | < 3 | < 3 |
| Cc1ccc(NC(=O)CC(Cc2cccc(=O)[nH]2)c2nnc([C@H]3C[C@@H](CC(C)C)C3)n2C2CC2)c(C)c1 (mixture of isomers) [Example F-505] | – | – | < 3 | > 3 |
| Cc1ccc(NC(=O)CC(CN2C(=O)N(C)C(C)(C)C2=O)c2nnc(CCCC(C)(C)C)n2C2CC2)c(C)c1 (racemic) [Example F-508] | – | – | > 3 | > 3 |
| C=CCC(CC(=O)Nc1ccc(C)cc1C)c1nnc([C@H]2C[C@@H](CC(C)C)C2)n1C1CC1 (mixture of isomers) [Example F-509] | – | – | < 3 | < 3 |
| C=C1C[C@H](C(=O)Nc2ccc(C)cc2C)[C@@H](c2nnc([C@H]3C[C@@H](CC(C)C)C3)n2C2CC2)C1 (racemic) [Example F-517] | – | – | < 3 | < 3 |
| Cc1ccc(NC(=O)[C@H]2CN(S(=O)(=O)C(F)(F)F)C[C@@H]2c2nnc(CCCC(C)(C)C)n2C2CC2)c(C)c1 (racemic) [Example F-527] | – | – | < 3 | < 3 |
| Cc1ccc(NC(=O)CC(c2nnc([C@H]3C[C@@H](CC(C)C)C3)n2C2CC2)C(C)O)c(C)c1 (mixture of isomers) [Example F-529] | – | – | < 3 | < 3 |
| Cc1ccc(NC(=O)[C@H]2CC(=O)C[C@@H]2c2nnc([C@H]3C[C@@H](CC(C)C)C3)n2C2CC2)c(C)c1 (racemic) [Example F-533] | – | – | < 3 | < 3 |
| Cc1ccc(NC(=O)[C@H]2CC(O)(C(F)(F)F)C[C@@H]2c2nnc([C@H]3C[C@@H](CC(C)C)C3)n2C2CC2)c(C)c1 (mixture of isomers) [Example F-545] | – | – | < 3 | < 3 |
| Cc1ccc(NC(=O)[C@H]2CC(F)(F)C[C@@H]2c2nnc(-c3cc(CC(C)C)on3)n2C2CC2)c(C)c1 (racemic) [Example F-570] | – | – | < 3 | > 3 |
| Cc1ccc(NC(=O)[C@H]2CN(C)CC[C@@H]2c2nnc([C@H]3C[C@@H](CC(C)C)C3)n2C2CC2)c(C)c1 (racemic) [Example F-583] | – | – | < 3 | < 3 |
| Cc1ccc(NC(=O)CC(c2nnc([C@H]3C[C@@H](CC(C)C)C3)n2C2CC2)C(F)(F)CO)c(C)c1 (mixture of isomers) [Example F-617] | – | – | < 3 | < 3 |
| Cc1ccc(NC(=O)C[C@H](CCC(=O)O)c2nnc([C@H]3C[C@@H](CC(C)(C)C(C)C)C3)n2C2CC2(F)F)c(Cl)c1 (mixture of isomers) [Example F-714] | – | – | < 3 | < 3 |
| Cc1ccc(NC(=O)CCc2noc(C(O)c3cc(C(C)(C)C)no3)c2C2CC2)c(Cl)c1 (racemic) [Example F-744] | – | – | > 3 | < 3 |
| CC(=O)N1C[C@H](C(=O)Nc2ccc(C)cc2C)[C@@H](c2nnc(CCC3CC3(C)C)n2C2CC2)C1 (single isomer, unassigned) [Example F-328] | < 3 | < 3 | – | – |
